In the kinase profiling compilation of Christmann-Franck et al. (2016):

Key:
Assay in all cases: radiometric filter-binding kinase assay, Kinase HotSpot
Conditions in all cases: compound 0.5 µM; ATP 10 µM
FLT1 (human) = FLT1 (human) (UniProt P17948)
RET (human) = RET (human) (UniProt P07949)
NEK9 (human) = NEK9 (human) (UniProt Q8TD19)
PAK2 (human) = PAK2 (human) (UniProt Q13177)
CDK3 CCNE1 (human) = CDK3 CCNE1 (human) (UniProt Q00526+P24864)
CDC42BPA (human) = CDC42BPA (human) (UniProt Q5VT25)
TBK1 (human) = TBK1 (human) (UniProt Q9UHD2)
PAK1 (human) = PAK1 (human) (UniProt Q13153)
MAP4K5 (human) = MAP4K5 (human) (UniProt Q9Y4K4)
DAPK1 (human) = DAPK1 (human) (UniProt P53355)
CSK (human) = CSK (human) (UniProt P41240)
CAMK1 (human) = CAMK1 (human) (UniProt Q14012)
LCK (human) = LCK (human) (UniProt P06239)
RPS6KA2 KD1 KD2 (human) = RPS6KA2 KD1 KD2 (human) (UniProt Q15349)
DYRK1B (human) = DYRK1B (human) (UniProt Q9Y463)
FGFR4 (human) = FGFR4 (human) (UniProt P22455)
EPHA8 (human) = EPHA8 (human) (UniProt P29322)
NEK6 (human) = NEK6 (human) (UniProt Q9HC98)
STK3 (human) = STK3 (human) (UniProt Q13188)
PRKG2 (human) = PRKG2 (human) (UniProt Q13237)
MAPK11 (human) = MAPK11 (human) (UniProt Q15759)
SRC (human) = SRC (human) (UniProt P12931)
SRPK1 (human) = SRPK1 (human) (UniProt Q96SB4)
TAOK3 (human) = TAOK3 (human) (UniProt Q9H2K8)
MAP3K8 (human) = MAP3K8 (human) (UniProt P41279)
VRK1 (human) = VRK1 (human) (UniProt Q99986)
PKN1 (human) = PKN1 (human) (UniProt Q16512)
RPS6KA1 KD1 KD2 (human) = RPS6KA1 KD1 KD2 (human) (UniProt Q15418)
TGFBR2 (human) = TGFBR2 (human) (UniProt P37173)
RPS6KB1 (human) = RPS6KB1 (human) (UniProt P23443)
KIT (human) = KIT (human) (UniProt P10721)
MUSK (human) = MUSK (human) (UniProt O15146)
ULK2 (human) = ULK2 (human) (UniProt Q8IYT8)
HIPK3 (human) = HIPK3 (human) (UniProt Q9H422)
ACVR1 (human) = ACVR1 (human) (UniProt Q04771)
CHUK (human) = CHUK (human) (UniProt O15111)
IKBKB (human) = IKBKB (human) (UniProt O14920)
PHKG1 (human) = PHKG1 (human) (UniProt Q16816)
AKT2 (human) = AKT2 (human) (UniProt P31751)
INSR (human) = INSR (human) (UniProt P06213)
ABL2 (human) = ABL2 (human) (UniProt P42684)
MAPKAPK3 (human) = MAPKAPK3 (human) (UniProt Q16644)

Chain of ABL2 (human) (P42684 whole entry, looked up): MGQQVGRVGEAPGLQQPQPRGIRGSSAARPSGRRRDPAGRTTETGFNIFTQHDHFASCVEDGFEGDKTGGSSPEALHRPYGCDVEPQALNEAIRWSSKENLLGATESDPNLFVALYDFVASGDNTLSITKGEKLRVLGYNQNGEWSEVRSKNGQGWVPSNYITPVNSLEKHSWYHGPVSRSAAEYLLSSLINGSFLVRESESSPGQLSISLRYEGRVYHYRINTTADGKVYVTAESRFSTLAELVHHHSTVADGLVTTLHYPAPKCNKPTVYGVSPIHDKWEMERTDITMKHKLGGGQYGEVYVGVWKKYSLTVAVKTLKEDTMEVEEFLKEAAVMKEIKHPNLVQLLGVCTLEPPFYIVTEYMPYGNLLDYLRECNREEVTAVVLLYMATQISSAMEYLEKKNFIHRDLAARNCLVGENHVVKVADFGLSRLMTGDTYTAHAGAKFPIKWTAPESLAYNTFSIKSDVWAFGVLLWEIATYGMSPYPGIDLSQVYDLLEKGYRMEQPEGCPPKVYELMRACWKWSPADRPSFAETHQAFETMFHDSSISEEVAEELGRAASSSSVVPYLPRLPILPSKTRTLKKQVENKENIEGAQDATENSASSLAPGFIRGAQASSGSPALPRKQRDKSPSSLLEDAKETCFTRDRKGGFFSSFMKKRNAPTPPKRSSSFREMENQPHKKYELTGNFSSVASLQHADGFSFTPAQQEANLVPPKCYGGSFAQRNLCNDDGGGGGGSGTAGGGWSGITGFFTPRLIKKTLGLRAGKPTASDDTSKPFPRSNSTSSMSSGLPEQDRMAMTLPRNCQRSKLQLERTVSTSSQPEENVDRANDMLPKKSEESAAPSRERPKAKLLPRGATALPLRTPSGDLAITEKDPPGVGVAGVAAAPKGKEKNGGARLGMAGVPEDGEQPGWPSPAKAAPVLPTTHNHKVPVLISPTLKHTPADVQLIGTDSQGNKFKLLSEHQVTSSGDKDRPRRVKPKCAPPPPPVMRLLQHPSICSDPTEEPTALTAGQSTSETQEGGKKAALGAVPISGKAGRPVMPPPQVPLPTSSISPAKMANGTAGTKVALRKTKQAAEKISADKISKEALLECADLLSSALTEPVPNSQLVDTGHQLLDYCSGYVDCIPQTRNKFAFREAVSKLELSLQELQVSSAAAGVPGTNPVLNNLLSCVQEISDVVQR
Chain of AKT2 (human) (P31751 whole entry, looked up): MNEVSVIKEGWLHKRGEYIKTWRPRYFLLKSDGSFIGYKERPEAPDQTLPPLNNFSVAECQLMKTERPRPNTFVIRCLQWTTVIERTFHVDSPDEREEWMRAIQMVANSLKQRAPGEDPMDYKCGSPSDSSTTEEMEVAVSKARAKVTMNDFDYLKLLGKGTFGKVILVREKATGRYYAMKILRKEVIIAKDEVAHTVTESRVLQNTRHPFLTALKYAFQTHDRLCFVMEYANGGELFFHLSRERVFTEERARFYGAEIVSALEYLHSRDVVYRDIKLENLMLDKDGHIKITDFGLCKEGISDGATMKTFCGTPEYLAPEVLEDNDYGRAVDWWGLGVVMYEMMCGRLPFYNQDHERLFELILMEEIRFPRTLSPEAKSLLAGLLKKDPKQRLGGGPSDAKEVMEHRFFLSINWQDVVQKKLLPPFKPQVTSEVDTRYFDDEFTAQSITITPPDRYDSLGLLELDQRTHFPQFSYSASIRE
Chain of INSR (human) (P06213 whole entry, looked up): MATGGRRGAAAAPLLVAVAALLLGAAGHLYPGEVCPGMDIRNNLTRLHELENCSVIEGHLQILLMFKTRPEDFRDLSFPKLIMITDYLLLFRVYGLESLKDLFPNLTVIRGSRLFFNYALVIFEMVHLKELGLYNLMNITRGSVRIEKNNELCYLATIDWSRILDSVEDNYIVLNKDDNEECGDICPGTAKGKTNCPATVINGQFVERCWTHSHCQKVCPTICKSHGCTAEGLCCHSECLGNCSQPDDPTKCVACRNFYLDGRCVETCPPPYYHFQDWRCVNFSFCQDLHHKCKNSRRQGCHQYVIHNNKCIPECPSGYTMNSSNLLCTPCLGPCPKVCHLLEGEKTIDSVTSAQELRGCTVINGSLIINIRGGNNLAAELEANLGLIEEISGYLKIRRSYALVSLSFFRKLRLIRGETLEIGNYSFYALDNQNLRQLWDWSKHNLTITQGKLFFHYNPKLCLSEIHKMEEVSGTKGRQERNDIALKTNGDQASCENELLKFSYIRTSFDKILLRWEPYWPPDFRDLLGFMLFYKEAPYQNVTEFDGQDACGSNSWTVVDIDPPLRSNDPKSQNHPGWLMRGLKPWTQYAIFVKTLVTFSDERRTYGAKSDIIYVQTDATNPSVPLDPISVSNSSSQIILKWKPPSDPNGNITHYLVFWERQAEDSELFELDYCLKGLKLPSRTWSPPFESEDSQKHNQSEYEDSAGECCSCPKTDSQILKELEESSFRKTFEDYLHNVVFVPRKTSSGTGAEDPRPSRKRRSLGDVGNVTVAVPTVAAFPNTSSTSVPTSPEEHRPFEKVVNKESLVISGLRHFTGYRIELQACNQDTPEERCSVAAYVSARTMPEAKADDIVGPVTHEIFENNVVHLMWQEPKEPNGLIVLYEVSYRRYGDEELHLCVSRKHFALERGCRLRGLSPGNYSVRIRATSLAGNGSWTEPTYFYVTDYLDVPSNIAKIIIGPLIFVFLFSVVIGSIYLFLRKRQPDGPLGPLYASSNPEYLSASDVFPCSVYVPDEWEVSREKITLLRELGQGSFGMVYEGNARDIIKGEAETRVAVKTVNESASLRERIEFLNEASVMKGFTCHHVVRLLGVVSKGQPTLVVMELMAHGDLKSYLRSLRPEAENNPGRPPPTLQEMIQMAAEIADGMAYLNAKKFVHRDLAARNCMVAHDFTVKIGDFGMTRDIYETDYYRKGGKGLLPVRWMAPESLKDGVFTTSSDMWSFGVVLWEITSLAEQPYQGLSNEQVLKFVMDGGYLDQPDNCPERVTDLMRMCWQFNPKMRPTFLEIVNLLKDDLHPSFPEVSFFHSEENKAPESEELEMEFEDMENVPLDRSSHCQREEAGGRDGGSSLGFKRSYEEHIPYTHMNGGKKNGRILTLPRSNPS
Chain of CSK (human) (P41240 whole entry, looked up): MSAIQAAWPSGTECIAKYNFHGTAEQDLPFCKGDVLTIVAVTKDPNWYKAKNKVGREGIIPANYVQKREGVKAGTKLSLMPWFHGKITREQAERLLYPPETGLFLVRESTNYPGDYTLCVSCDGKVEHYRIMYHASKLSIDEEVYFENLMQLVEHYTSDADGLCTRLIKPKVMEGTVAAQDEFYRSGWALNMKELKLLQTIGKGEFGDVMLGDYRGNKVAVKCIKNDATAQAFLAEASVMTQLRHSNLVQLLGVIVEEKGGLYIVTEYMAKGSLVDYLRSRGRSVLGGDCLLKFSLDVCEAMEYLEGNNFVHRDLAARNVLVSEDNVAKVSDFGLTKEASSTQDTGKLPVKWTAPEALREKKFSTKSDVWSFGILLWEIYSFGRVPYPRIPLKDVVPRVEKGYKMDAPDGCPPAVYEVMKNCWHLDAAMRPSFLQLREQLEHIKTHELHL
Chain of DAPK1 (human) (P53355 whole entry, looked up): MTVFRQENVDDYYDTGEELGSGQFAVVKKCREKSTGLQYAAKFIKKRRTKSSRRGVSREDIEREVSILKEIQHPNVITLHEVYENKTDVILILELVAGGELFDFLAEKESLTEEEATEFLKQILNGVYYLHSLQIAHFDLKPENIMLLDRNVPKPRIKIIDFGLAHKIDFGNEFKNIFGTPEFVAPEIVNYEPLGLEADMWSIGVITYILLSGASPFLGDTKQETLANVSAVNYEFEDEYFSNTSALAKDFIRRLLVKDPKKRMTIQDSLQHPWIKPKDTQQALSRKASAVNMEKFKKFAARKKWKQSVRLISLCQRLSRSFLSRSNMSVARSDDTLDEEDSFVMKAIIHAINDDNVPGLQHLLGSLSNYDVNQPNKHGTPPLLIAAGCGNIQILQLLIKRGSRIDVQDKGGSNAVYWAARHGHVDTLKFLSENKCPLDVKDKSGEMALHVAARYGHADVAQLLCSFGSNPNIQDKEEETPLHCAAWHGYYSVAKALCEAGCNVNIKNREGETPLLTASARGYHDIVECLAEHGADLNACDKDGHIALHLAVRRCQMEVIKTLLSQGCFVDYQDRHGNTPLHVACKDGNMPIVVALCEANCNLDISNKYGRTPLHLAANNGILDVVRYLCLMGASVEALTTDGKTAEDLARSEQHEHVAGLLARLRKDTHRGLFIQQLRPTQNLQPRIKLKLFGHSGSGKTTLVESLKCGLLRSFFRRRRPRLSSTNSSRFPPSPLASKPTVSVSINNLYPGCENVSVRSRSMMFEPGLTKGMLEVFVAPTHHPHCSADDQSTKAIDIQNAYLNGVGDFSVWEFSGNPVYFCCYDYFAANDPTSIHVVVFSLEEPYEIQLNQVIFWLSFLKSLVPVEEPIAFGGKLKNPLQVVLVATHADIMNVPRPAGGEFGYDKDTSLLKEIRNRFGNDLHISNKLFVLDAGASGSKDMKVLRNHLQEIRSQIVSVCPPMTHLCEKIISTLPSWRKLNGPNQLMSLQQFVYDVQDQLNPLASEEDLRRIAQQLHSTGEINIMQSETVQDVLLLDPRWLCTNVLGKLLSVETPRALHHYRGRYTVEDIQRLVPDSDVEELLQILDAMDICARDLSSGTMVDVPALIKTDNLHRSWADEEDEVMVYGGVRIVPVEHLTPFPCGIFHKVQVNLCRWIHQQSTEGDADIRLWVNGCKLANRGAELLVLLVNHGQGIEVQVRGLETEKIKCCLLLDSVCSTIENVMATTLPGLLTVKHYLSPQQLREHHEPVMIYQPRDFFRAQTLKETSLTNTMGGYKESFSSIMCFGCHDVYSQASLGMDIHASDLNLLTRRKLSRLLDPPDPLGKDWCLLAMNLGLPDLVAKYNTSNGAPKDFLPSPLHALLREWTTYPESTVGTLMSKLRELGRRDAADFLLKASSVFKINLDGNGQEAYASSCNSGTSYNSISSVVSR

## CC(C)c1nn(-c2c(Cl)cccc2Cl)c2nc(Cc3ccc(OCCO)cc3)nc(O)c12
FLT1 (human)
  residual activity: 87.2%
RET (human)
  residual activity: 97.5%
NEK9 (human)
  residual activity: 97.3%
PAK2 (human)
  residual activity: 95.6%
CDK3 CCNE1 (human)
  residual activity: 6.14%
CDC42BPA (human)
  residual activity: 89.5%
TBK1 (human)
  residual activity: 97.7%
PAK1 (human)
  residual activity: 89.7%
MAP4K5 (human)
  residual activity: 89.9%
DAPK1 (human)
  residual activity: 99.5%
CSK (human)
  residual activity: 106%
CAMK1 (human)
  residual activity: 85.1%
LCK (human)
  residual activity: 88.6%
RPS6KA2 KD1 KD2 (human)
  residual activity: 80.8%
DYRK1B (human)
  residual activity: 99.9%
FGFR4 (human)
  residual activity: 91.5%
EPHA8 (human)
  residual activity: 102%
NEK6 (human)
  residual activity: 105%
STK3 (human)
  residual activity: 93.5%
PRKG2 (human)
  residual activity: 61.6%
MAPK11 (human)
  residual activity: 81.8%
SRC (human)
  residual activity: 86.7%
SRPK1 (human)
  residual activity: 97.4%
TAOK3 (human)
  residual activity: 91.3%
MAP3K8 (human)
  residual activity: 96.4%
VRK1 (human)
  residual activity: 103%
PKN1 (human)
  residual activity: 97%
RPS6KA1 KD1 KD2 (human)
  residual activity: 91.3%
TGFBR2 (human)
  residual activity: 74.3%
RPS6KB1 (human)
  residual activity: 94.8%
KIT (human)
  residual activity: 71%
MUSK (human)
  residual activity: 96.2%
ULK2 (human)
  residual activity: 86.6%
HIPK3 (human)
  residual activity: 99%
ACVR1 (human)
  residual activity: 94.7%
CHUK (human)
  residual activity: 98.5%
IKBKB (human)
  residual activity: 103%
PHKG1 (human)
  residual activity: 87%
AKT2 (human)
  residual activity: 92.4%
INSR (human)
  residual activity: 100%
ABL2 (human)
  residual activity: 96.3%
MAPKAPK3 (human)
  residual activity: 89.2%

## Cc1nc2cc3nc(-c4cccs4)cnc3cc2n1C
FLT1 (human)
  residual activity: 93.6%
RET (human)
  residual activity: 68.9%
NEK9 (human)
  residual activity: 105%
PAK2 (human)
  residual activity: 102%
CDK3 CCNE1 (human)
  residual activity: 93.6%
CDC42BPA (human)
  residual activity: 109%
TBK1 (human)
  residual activity: 93%
PAK1 (human)
  residual activity: 86.6%
MAP4K5 (human)
  residual activity: 94.8%
DAPK1 (human)
  residual activity: 99.5%
CSK (human)
  residual activity: 101%
CAMK1 (human)
  residual activity: 98.1%
LCK (human)
  residual activity: 86.3%
RPS6KA2 KD1 KD2 (human)
  residual activity: 95%
DYRK1B (human)
  residual activity: 102%
FGFR4 (human)
  residual activity: 96.3%
EPHA8 (human)
  residual activity: 100%
NEK6 (human)
  residual activity: 99.2%
STK3 (human)
  residual activity: 97.1%
PRKG2 (human)
  residual activity: 87.7%
MAPK11 (human)
  residual activity: 101%
SRC (human)
  residual activity: 89.9%
SRPK1 (human)
  residual activity: 107%
TAOK3 (human)
  residual activity: 116%
MAP3K8 (human)
  residual activity: 99%
VRK1 (human)
  residual activity: 95.6%
PKN1 (human)
  residual activity: 96.5%
RPS6KA1 KD1 KD2 (human)
  residual activity: 99.4%
TGFBR2 (human)
  residual activity: 89.2%
RPS6KB1 (human)
  residual activity: 95%
KIT (human)
  residual activity: 40.4%
MUSK (human)
  residual activity: 90.6%
ULK2 (human)
  residual activity: 105%
HIPK3 (human)
  residual activity: 101%
ACVR1 (human)
  residual activity: 99.3%
CHUK (human)
  residual activity: 96.2%
IKBKB (human)
  residual activity: 103%
PHKG1 (human)
  residual activity: 98.2%
AKT2 (human)
  residual activity: 91.5%
INSR (human)
  residual activity: 99.9%
ABL2 (human)
  residual activity: 100%
MAPKAPK3 (human)
  residual activity: 102%

## Cn1sc(=O)n(Cc2ccccc2)c1=O
FLT1 (human)
  residual activity: 96.1%
RET (human)
  residual activity: 106%
NEK9 (human)
  residual activity: 98.2%
PAK2 (human)
  residual activity: 104%
CDK3 CCNE1 (human)
  residual activity: 78.1%
CDC42BPA (human)
  residual activity: 94%
TBK1 (human)
  residual activity: 102%
PAK1 (human)
  residual activity: 94.1%
MAP4K5 (human)
  residual activity: 107%
DAPK1 (human)
  residual activity: 97.9%
CSK (human)
  residual activity: 101%
CAMK1 (human)
  residual activity: 100%
LCK (human)
  residual activity: 103%
RPS6KA2 KD1 KD2 (human)
  residual activity: 104%
DYRK1B (human)
  residual activity: 103%
FGFR4 (human)
  residual activity: 97.2%
EPHA8 (human)
  residual activity: 94.4%
NEK6 (human)
  residual activity: 102%
STK3 (human)
  residual activity: 93.2%
PRKG2 (human)
  residual activity: 108%
MAPK11 (human)
  residual activity: 97.2%
SRC (human)
  residual activity: 95%
SRPK1 (human)
  residual activity: 89.8%
TAOK3 (human)
  residual activity: 101%
MAP3K8 (human)
  residual activity: 97.1%
VRK1 (human)
  residual activity: 94.2%
PKN1 (human)
  residual activity: 98.5%
RPS6KA1 KD1 KD2 (human)
  residual activity: 97.6%
TGFBR2 (human)
  residual activity: 123%
RPS6KB1 (human)
  residual activity: 98%
KIT (human)
  residual activity: 101%
MUSK (human)
  residual activity: 103%
ULK2 (human)
  residual activity: 105%
HIPK3 (human)
  residual activity: 94.9%
ACVR1 (human)
  residual activity: 102%
CHUK (human)
  residual activity: 96.2%
IKBKB (human)
  residual activity: 112%
PHKG1 (human)
  residual activity: 102%
AKT2 (human)
  residual activity: 99.2%
INSR (human)
  residual activity: 93.7%
ABL2 (human)
  residual activity: 96.7%
MAPKAPK3 (human)
  residual activity: 105%

## O=C(Nc1cccc(Nc2cc(Nc3cccc(C(F)(F)F)c3)ncn2)c1)C1CC1
FLT1 (human)
  residual activity: 99.4%
RET (human)
  residual activity: 109%
NEK9 (human)
  residual activity: 101%
PAK2 (human)
  residual activity: 103%
CDK3 CCNE1 (human)
  residual activity: 94.8%
CDC42BPA (human)
  residual activity: 77.7%
TBK1 (human)
  residual activity: 99%
PAK1 (human)
  residual activity: 96.6%
MAP4K5 (human)
  residual activity: 96.1%
DAPK1 (human)
  residual activity: 94.7%
CSK (human)
  residual activity: 102%
CAMK1 (human)
  residual activity: 108%
LCK (human)
  residual activity: 100%
RPS6KA2 KD1 KD2 (human)
  residual activity: 102%
DYRK1B (human)
  residual activity: 105%
FGFR4 (human)
  residual activity: 102%
EPHA8 (human)
  residual activity: 103%
NEK6 (human)
  residual activity: 99.2%
STK3 (human)
  residual activity: 102%
PRKG2 (human)
  residual activity: 103%
MAPK11 (human)
  residual activity: 97.2%
SRC (human)
  residual activity: 102%
SRPK1 (human)
  residual activity: 86.4%
TAOK3 (human)
  residual activity: 98.7%
MAP3K8 (human)
  residual activity: 98.4%
VRK1 (human)
  residual activity: 94%
PKN1 (human)
  residual activity: 98.9%
RPS6KA1 KD1 KD2 (human)
  residual activity: 95.1%
TGFBR2 (human)
  residual activity: 105%
RPS6KB1 (human)
  residual activity: 98%
KIT (human)
  residual activity: 99.9%
MUSK (human)
  residual activity: 113%
ULK2 (human)
  residual activity: 102%
HIPK3 (human)
  residual activity: 97%
ACVR1 (human)
  residual activity: 103%
CHUK (human)
  residual activity: 95.6%
IKBKB (human)
  residual activity: 100%
PHKG1 (human)
  residual activity: 100%
AKT2 (human)
  residual activity: 103%
INSR (human)
  residual activity: 103%
ABL2 (human)
  residual activity: 100%
MAPKAPK3 (human)
  residual activity: 104%
